“Also recorded” adds a separate entry of the source.
Key:
[1] = tested on: Shh pathway; experiment: Shh pathway expression (Gli1, N-Myc; Western Blot, real time Q-PCR) in GCP neurosphere cultures; assay type: cell-based, mouse; details: Western Blot, neurospheres under different culture conditions; SAG 200 nM, EGF 1 μM
Experimental: (§1) After surgical resection from a mouse on the seventh day of postnatal life (P7) the cerebellum was mechanically shredded in a buffer containing HBSS, glucose and antibiotics, and DNase (at concentrations as defined above) and the individual cells thus obtained were counted and plated at a dilution of 16000 cells/cm^2 on a medium composed of DMEM-F12, glucose, Vitamin A-free B27, insulin, NALC, heparin, antibiotics (at concentrations as defined above) and SAG (200 nM) and EGF ([…]). On this medium the cells can be enriched and maintained for an unlimited time, after periodical dissociation of the spheres with Accutase® (2-3 times per week) and propagation by dilution (to prevent excessive growth and consequent death from nutrient deficiency and hypoxia). The reaction conditions were as described above.

[2] = tested on: GCP cells; experiment: Clonogenicity / long-term propagation of GCP neurosphere cultures; assay type: cell-based, mouse
Experimental: as §1

CNC1CCC(N(Cc2cccc(-c3ccncc3)c2)C(=O)c2sc3ccccc3c2Cl)CC1 (stereo not drawn) [SAG]
expression of molecular biomarkers of the Shh pathway, Gli1 and N-Myc [1]: active; also recorded: maintains a high expression of the Shh pathway | long-term survival of the culture ([2]; factor alone): does not ensure long-term survival of the culture | clonogenic power (average spheres) over time ([2]; several weeks after being grown): undergoes progressive decline

Source: patent publication US20220177834A1, “STABLE SYSTEM FOR THE IN VITRO CULTURE OF CEREBELLAR GRANULE CELL PRECURSORS (GCP), STABLE METHOD FOR THE IN VITRO CULTURE OF SAID CELLS AND USE OF SAID SYSTEM OR METHOD FOR IN VITRO CULTURE” (UNIVERSITA DEGLI STUDI Dl ROMA "LA SAPIENZA", priority 2019, published 2022)
